Publication PMC4993737, “Antibacterial activity identification of pCM19 and pCM12 derived from hGlyrichin” (SpringerPlus, 2016)

Experiments:
E. coli BL21 Amp^R = test: Bacteria colony counting method; format: cell-based, Escherichia coli; details: 100 µg peptide, 37 °C 2 h, plated, colonies counted after 12–18 h, n = 5, numbers only in Fig. 1b
Experimental: (§1) The antimicrobial activity assays were completed in a specialized laboratory. Red blood cells were collected from healthy adults at the 307 hospital laboratory. All participants gave informed consent to participate in the study.
(§2) Twenty microliters of the culture was diluted in LB (final volume 1 ml) and was evenly coated on an LB plate, inverted and incubated at 37 °C for 12–18 h and then the bacterial colonies were counted.

E. coli BL21 = test: Bacteria colony counting method; format: cell-based, Escherichia coli; details: 100 µg peptide, 37 °C 2 h, plated, colonies counted after 12–18 h, n = 5, numbers only in Fig. 1a
Experimental: as §1, §2

S. aureus (ATCC 25923) = test: Bacteria colony counting method; format: cell-based, Staphylococcus aureus; details: 100 µg peptide, 37 °C 2 h, plated, colonies counted after 12–18 h, n = 5, numbers only in Fig. 1c
Experimental: as §1, §2

[1] = test system: S. aureus Amp^R (ATCC BAA-44); test: Bacteria colony counting method; format: cell-based, Staphylococcus aureus; details: 100 µg peptide, 37 °C 2 h, plated, colonies counted after 12–18 h, n = 5, numbers only in Fig. 1d
Experimental: as §1, §2

S. Typhi (ATCC 19430) = test: Bacteria colony counting method; format: cell-based, Salmonella Typhi; details: 100 µg peptide, 37 °C 2 h, plated, colonies counted after 12–18 h, n = 5, numbers only in Fig. 1e
Experimental: as §1, §2

human red blood cells = test: In vitro hemolysis assay; format: cell-based; details: 1 h 37 °C, even at a much higher concentration than the effective antibacterial dose (up to 3000 µg/ml)
Experimental: as §1
Blood samples from healthy donors were treated with heparin to minimize clotting. The blood cell was washed three times with normal saline, and 8 µl samples were diluted to 100 µl in normal saline. The diluted blood cell (100 µl) was incubated with 100 µl of pCM19 (3000 µg/ml) for 1 h at 37 °C; then the same volume diluted blood cell was incubated with 100 µl of pCM12 (100, 200, 500, 1000, 2000, 3000 µg/ml) for 1 h at 37 °C. Centrifugation was carried out at 1000 rpm for 5 min at 4 °C. Each treatment was performed in triplicate. The absorbance of each sample was measured at 570 nm using a microplate reader.

Row | Substance | antibacterial activity by colony counting (E. coli BL21 Amp^R) | antibacterial activity by colony counting (E. coli BL21) | antibacterial activity by colony counting (S. aureus (ATCC 25923)) | antibacterial activity by colony counting [1] | antibacterial activity by colony counting (S. Typhi (ATCC 19430)) | damage to red cell membranes (hemolysis), in words (human red blood cells)
1 | CLRIGMRGRELM [pCM12, 12 amino acids of pCM19 from which 7 amino acids at the carboxyl terminal were removed] | good inhibition and killing | effectively inhibited the growth | effectively inhibited the growth | good inhibition and killing | effectively inhibited the growth | caused no damage to the red cell membranes
2 | CLRIGMRGRELMGGIGKTM [pCM19, 19 amino acids from positions 42 to 60 of hGlyrichin] | good inhibition and killing | effectively inhibited the growth | effectively inhibited the growth | good inhibition and killing | effectively inhibited the growth | caused no damage to the red cell membranes
3 | GGIGKTM [flexible peptide, a GIG array, the portion that is different between pCM19 and pCM12] | almost completely lost the antibacterial activity | almost completely lost the antibacterial activity | almost completely lost the antibacterial activity | almost completely lost the antibacterial activity | almost completely lost the antibacterial activity | 
4 | CLRIGMRGREL [pCM11, pCM12 with the last amino acid residue removed] | lost its antibacterial activity | lost its antibacterial activity | lost its antibacterial activity | lost its antibacterial activity | lost its antibacterial activity | 
5 | GICRLMMRRGLE [RC, a random array of pCM12] | almost completely lost its bactericidal activity | almost completely lost its bactericidal activity | almost completely lost its bactericidal activity | almost completely lost its bactericidal activity | almost completely lost its bactericidal activity | 
